Experimental data reported in US20220227762A1, “AMIDE-SUBSTITUTED IMIDAZO COMPOUNDS AS SELECTIVE INHIBITORS OF INDOLEAMINE 2,3-DIOXYGENASES” (BEIGENE, LTD., priority 2019, published 2022).
pEC50: −log10 of the molar value. Read-outs that look alike come from different tables or passages of the source.

How the values were obtained:
IDO1 = target: T1, IDO1 (Homo sapiens, UniProt P14902); test: HeLa Cell-Based IDO1 Kyn (Kynurenine) Production Assay; conditions: for EC50: HeLa cells, IDO1 induced by IFN-γ, 0.4 mM L-Trp, 48 hours incubation, Kyn absorbance at 480 nm, read-out: Cell-Based EC50 (nM) Hela IDO1
T1 construct: endogenous in cells; host or cells: HeLa cells (American Type Culture Collection), induced with human recombinant IFN-γ
Experimental: HeLa Cell-Based IDO1 Kyn (Kynurenine) Production Assay:
The inhibitory activity of IDO1 inhibitors is determined by using a colorimetric reaction to measure Kyn generated from L-Trp (L-Tryptophon) oxidation by cellular IDO1 in HeLa cells after induction of IDO1 expression by IFN-γ. Hela cells were obtained from the American Type Culture Collection and recovered in 10% FBS-containing phenol red-free DMEM medium. Cells were plated onto a 96-well plate (100 μl/well) at 8000 cells per well and kept at 37° C. in a humidified incubator supplied with 5% CO2. 4 hours later, Human recombinant IFN-γ (8901SC, CST) was added to cells (final concentration 100 ng/mL) to stimulate endogenous IDO1. Compounds at different concentrations diluted in dimethylsulfoxide (DMSO) were added simultaneously with IFN-γ and 0.4 mM L-Trp. Cells were kept at 37° C. in a humidified incubator supplied with 5% CO2. After 48 hours of incubation, 100 μl supernatant from each well was removed to a new plate. The protein in the medium was precipitated with the addition of 8 μl 6N trichloroacetic acid. The plate was incubated at 60° C. for 30 minutes and then centrifugation at 2500 rpm for 10 minutes to remove sediments. 80 μl supernatants were carefully removed to a new clean plate and added with an equal volume of 2% 4-(Dimethylamino)benzaldehyde (D2004, Sigma) dissolved in glacial acetic acid. The absorbance at 480 nm wavelength derived from Kyn was measured using a PHERAstar FS plate reader (BMG LABTECH). The IC50 for each compound was derived from fitting the dose-response data to the four-parameter logistic model by using XLfit software (IDBS).

plasma protein = test: Plasma Protein Binding Assay (equilibrium dialysis); format: in vitro ADME; conditions: 50% plasma, Human plasma, 37° C., read-out: Plasma Protein Binding assay (fu %) Human
Experimental: Plasma Protein Binding Assay:
To evaluate the plasma protein binding extent, the bound (fb) and unbound (fu) fractions of test compound will be determined in vitro by equilibrium dialysis approach, using a 96-well dialysis device (HT Dialysis, Gales Ferry, Conn., USA). The equilibrium dialysis will be conducted in duplicate. A hundred and fifty μL of 50% plasma spiked with the test compound (final concentration of 5 μM) will be added into the donor side and 150 μL of Phosphate Buffer (PB) (0.002% Tween-80) into the corresponding receiving side. The device will be then sealed with adhesive film and shook at 80 rpm in the water bath at 37° C. for 6 h. At the end of incubation, 10 μL plasma sample will be transferred from the donor side into a 1.5 mL microcentrifuge tube, added with 90 μL PB (0.002% Tween-80), vortexed well and proteins precipitated by acetonitrile containing internal standard (IS). Ninety μL of PB (0.002% Tween-80) sample will be transferred from the receiver side into a 1.5 mL microcentrifuge tube, added with 10 μL 50% blank plasma, vortexed well and proteins precipitated by acetonitrile containing IS.
For recovery check, […] of the donor side loading samples will be aliquoted into a 1.5 mL microcentrifuge tube (in duplicate), added with 90 μL PB (0.002% Tween-80), vortexed well and proteins precipitated by acetonitrile containing IS.
For plasma stability check, 10 μL of the donor side loading samples will be aliquoted into a 1.5 mL microcentrifuge tube (in duplicate), incubated in the water bath at 37° C. for 6 h, added with 90 μL PB (0.002% Tween-80) solution at the end of the incubation, vortexed well and proteins precipitated by acetonitrile containing IS.
Appropriate LC-MS/MS methods will be developed for the analysis of the test or control compounds in the incubates.
The unbound fraction (fu) of the test compound and positive control compounds in 50% plasma will be calculated using the following equations.
Where CR is the area ratio of the test compounds to the IS in the receiving side, CD is the area ratio of the test compound to the IS in the corresponding donor side and D is the dilution factor of plasma.

T1 sequence (P14902 whole entry): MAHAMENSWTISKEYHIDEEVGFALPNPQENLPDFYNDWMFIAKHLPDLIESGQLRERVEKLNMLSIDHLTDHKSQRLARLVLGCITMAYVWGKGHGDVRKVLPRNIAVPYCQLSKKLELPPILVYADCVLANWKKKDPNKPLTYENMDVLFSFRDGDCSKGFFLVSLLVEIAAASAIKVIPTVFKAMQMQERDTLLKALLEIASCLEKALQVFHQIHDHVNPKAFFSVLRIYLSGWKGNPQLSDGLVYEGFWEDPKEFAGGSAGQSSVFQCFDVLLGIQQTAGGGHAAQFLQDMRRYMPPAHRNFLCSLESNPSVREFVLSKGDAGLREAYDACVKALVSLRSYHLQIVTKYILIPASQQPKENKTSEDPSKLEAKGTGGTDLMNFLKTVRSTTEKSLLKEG

| EC50 (IDO1) [nM] | fraction unbound at 6 h, 5 μM (plasma protein) | Compound | pEC50 (IDO1) |
| --- | --- | --- | --- |
| 26.9 | 0.002 | C[C@@H](c1nc2cc(C(=O)NC3CCC3)ccc2[nH]1)[C@H]1CC[C@@H](c2ccnc3ccc(F)cc32)CC1 [Example 4, N-cyclobutyl-2-((R)-1-((1s,4S)-4-(6-fluoroquinolin-4-yl)cyclohexyl)ethyl)-1H-benzo[d]imidazole-6-carboxamide] | – |
| 6.9 | – | CC(c1nc2cc(C(=O)NC3CC3)c(F)cc2[nH]1)[C@H]1CC[C@@H](c2ccnc3ccc(F)cc32)CC1 (stereo partly drawn) [Example 20, N-cyclopropyl-6-fluoro-2-(1-((1s,4S)-4-(6-fluoroquinolin-4-yl)cyclohexyl)ethyl)-1H-benzo[d]imidazole-5-carboxamide] | – |
| 8.9 | – | CC(c1nc2c(F)c(F)c(C(=O)NC3CC3)cc2[nH]1)[C@H]1CC[C@@H](c2ccnc3ccc(F)cc32)CC1 (stereo partly drawn) [Example 21, N-cyclopropyl-4,5-difluoro-2-(1-((1s,4s)-4-(6-fluoroquinolin-4-yl)cyclohexyl)ethyl)-1H-benzo[d]imidazole-6-carboxamide] | – |
| 267 | 0.0056 | C[C@H](c1nc2cnc(C(=O)NC3CC3)cc2[nH]1)[C@H]1CC[C@@H](c2ccnc3ccc(F)cc32)CC1 [Example 22a, N-cyclopropyl-2-((S)-1-((1s,4R)-4-(6-fluoroquinolin-4-yl)cyclohexyl)ethyl)-1H-imidazo[4,5-c]pyridine-6-carboxamide] | – |
| 0.96 | 0.0047 | C[C@@H](c1nc2cc(C(=O)NC3CC3)ncc2[nH]1)[C@H]1CC[C@@H](c2ccnc3ccc(F)cc32)CC1 [Example 22b, N-cyclopropyl-2-((R)-1-((1s,4s)-4-(6-fluoroquinolin-4-yl)cyclohexyl)ethyl)-3H-imidazo[4,5-c]pyridine-6-carboxamide] | – |
| 223 | 0.0072 | CNC(=O)c1cc2[nH]c([C@@H](C)[C@H]3CC[C@@H](c4ccnc5ccc(F)cc54)CC3)nc2cn1 [Example 23a, 2-((S)-1-((1s,4R)-4-(6-fluoroquinolin-4-yl)cyclohexyl)ethyl)-N-methyl-1H-imidazo[4,5-c]pyridine-6-carboxamide] | – |
| 3.83 | 0.0053 | CNC(=O)c1cc2[nH]c([C@H](C)[C@H]3CC[C@@H](c4ccnc5ccc(F)cc54)CC3)nc2cn1 [Example 23b, 2-((R)-1-((1s,4S)-4-(6-fluoroquinolin-4-yl)cyclohexyl)ethyl)-N-methyl-1H-imidazo[4,5-c]pyridine-6-carboxamide] | – |
| 24.9 | – | C[C@@H](c1nc2cc(C(=O)NC3CC3)cnc2[nH]1)[C@H]1CC[C@@H](c2ccnc3ccc(F)cc32)CC1 [Example 24, N-cyclopropyl-2-((R)-1-((1s,4S)-4-(6-fluoroquinolin-4-yl)cyclohexyl)ethyl)-3H-imidazo[4,5-b]pyridine-6-carboxamide] | – |
| 82.4 | – | CC(c1nc2cc3c(=O)[nH]cnc3cc2[nH]1)[C@H]1CC[C@@H](c2ccnc3ccc(F)cc32)CC1 (stereo partly drawn) [Example 25, 2-(1-((1s,4s)-4-(6-fluoroquinolin-4-yl)cyclohexyl)ethyl)-3,7-dihydro-8H-imidazo[4,5-g]quinazolin-8-one] | – |
| 0.77 | – | CCNC(=O)c1cc2nc([C@H](C)[C@H]3CC[C@@H](c4ccnc5ccc(F)cc54)CC3)[nH]c2cn1 [Example 26, N-ethyl-2-((R)-1-((1s,4S)-4-(6-fluoroquinolin-4-yl)cyclohexyl)ethyl)-3H-imidazo[4,5-c]pyridine-6-carboxamide] | – |
| 0.55 | 0.00067 | COC(=O)c1ccc2[nH]c([C@H](C)[C@H]3CC[C@@H](c4ccnc5ccc(F)cc54)CC3)nc2c1 [Example 28b, methyl 2-((R)-1-((1s,4S)-4-(6-fluoroquinolin-4-yl)cyclohexyl)ethyl)-1H-benzo[d]imidazole-5-carboxylate, reference compound] | – |
| 0.85 | 0.0002 | C[C@@H](c1nc2c(F)c(F)c(F)cc2[nH]1)[C@H]1CC[C@@H](c2ccnc3ccc(F)cc32)CC1 [Example 29, 6-fluoro-4-((1S,4s)-4-((R)-1-(4,5,6-trifluoro-1H-benzo[d]imidazol-2-yl)ethyl)cyclohexyl)quinoline, reference compound] | – |

| Compound | EC50 (IDO1) [nM] | fraction unbound at 6 h, 5 μM (plasma protein) | pEC50 (IDO1) |
| --- | --- | --- | --- |
| C[C@@H](c1nc2cc(F)c(F)cc2[nH]1)[C@H]1CC[C@@H](c2ccnc3ccc(F)cc32)CC1 [Example 27b, 4-((1S,4s)-4-((R)-1-(5,6-difluoro-1H-benzo[d]imidazol-2-yl)ethyl)cyclohexyl)-6-fluoroquinoline, reference compound] | – | 0.00034 | 9.38 |
